Source: US20080268439A1, “ASSAY SYSTEMS AND METHODS FOR DETECTING MOLECULES THAT INTERACT WITH SK2 CHANNELS” (priority 2007, published 2008)

What was measured:
[1] = target: intermediate conductance Ca^2+-activated K^+ channels (Homo sapiens, UniProt O15554); conditions: cited from earlier work
[2] = target: T1, hSK2A^+ expressed in mammalian tsA201 cells (Homo sapiens, UniProt Q9H2S1, DUP58-58); test: Membrane potential sensitive dye fluorescence (FLIPR) assay in tsA201 cells stably expressing SK2; format: cell-based; conditions: FIG. 9; for Hill coefficient (nH): inhibition of ATP/Tg induced decrease in fluorescence
T1 construct: other: 100 nM to 1 mM added online; normalized to maximum fluorescence a; Hill coefficient (nH); hSK2A^+ was 1743 nucleotides in length and encoded a polypeptide of 580 amino acids
Experimental: (§1) These cells were plated in a black optical bottom 384 well assay plate at a density of 8×10^6 cells/plate. […] After a 30-minute incubation in the voltage sensitive dye, the cell plate was transferred to a fluorescence plate reader (FLIPR384™, Molecular Devices), and ten baseline fluorescence readings were obtained.
(§2) In FIG. 8, time is represented in seconds on the X-axis, and fluorescence is represented in au on the Y-axis. ATP/Tg addition is indicated at time I, and CsCl addition is indicated at time II.
(§3) The magnitude of the ATP/Tg induced decrease in fluorescence was measured in the presence of each of a panel of known SK2 inhibitors. […]

[3] = tested on: hSK2A^+ expressed in mammalian tsA201 cells; test: as above; format: cell-based, human; conditions: 10 minutes incubation
Experimental: as §1, §2, §3

T1 sequence (Q9H2S1 with tags, fused parts or gaps DUP58-58): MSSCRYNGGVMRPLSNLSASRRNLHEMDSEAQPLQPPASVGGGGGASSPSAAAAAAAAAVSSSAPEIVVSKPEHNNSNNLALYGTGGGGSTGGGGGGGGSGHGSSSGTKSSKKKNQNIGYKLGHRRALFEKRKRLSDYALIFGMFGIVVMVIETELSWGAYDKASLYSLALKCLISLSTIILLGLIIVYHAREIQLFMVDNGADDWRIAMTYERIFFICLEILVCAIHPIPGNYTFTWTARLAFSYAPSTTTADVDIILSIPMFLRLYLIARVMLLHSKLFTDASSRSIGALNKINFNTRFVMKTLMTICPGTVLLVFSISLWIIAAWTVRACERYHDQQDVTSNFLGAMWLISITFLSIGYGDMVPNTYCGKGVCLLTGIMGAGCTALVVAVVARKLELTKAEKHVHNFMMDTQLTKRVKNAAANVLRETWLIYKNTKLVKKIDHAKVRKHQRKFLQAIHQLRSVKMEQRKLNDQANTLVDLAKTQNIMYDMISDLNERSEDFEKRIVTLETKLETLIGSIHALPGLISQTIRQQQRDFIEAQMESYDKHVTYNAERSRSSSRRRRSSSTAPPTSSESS
Sequence of intermediate conductance Ca^2+-activated K^+ channels (O15554 whole entry): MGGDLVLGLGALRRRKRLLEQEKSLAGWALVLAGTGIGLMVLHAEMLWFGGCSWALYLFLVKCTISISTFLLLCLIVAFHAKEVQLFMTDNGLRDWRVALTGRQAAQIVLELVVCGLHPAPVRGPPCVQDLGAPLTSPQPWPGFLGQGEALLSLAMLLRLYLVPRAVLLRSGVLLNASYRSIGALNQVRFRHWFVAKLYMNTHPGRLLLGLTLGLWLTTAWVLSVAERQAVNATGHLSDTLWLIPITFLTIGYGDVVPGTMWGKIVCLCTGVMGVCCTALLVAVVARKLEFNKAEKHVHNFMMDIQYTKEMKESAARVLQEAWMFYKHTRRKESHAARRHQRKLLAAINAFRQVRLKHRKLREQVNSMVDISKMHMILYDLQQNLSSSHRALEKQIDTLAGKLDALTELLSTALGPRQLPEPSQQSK

CCn1c(=O)[nH]c2ccccc21 [1-EBIO, 1-ethyl-2-benzimidazolinone]
effect on intermediate conductance Ca2+-activated K+ channels [1]: enhance activity

O=c1[nH]c2cc(C(F)(F)F)ccc2n1-c1cc(C(F)(F)F)ccc1O [NS1619]
binding affinity of the inhibitors tested (rank order) [2]: apamin>scyllatoxin>NS1619>quinidine>bicuculline

C[N+]1(C)CCc2cc3c(cc2[C@H]1[C@@H]1OC(=O)c2c1ccc1c2OCO1)OCO3.[Br-] [bicuculline methobromide]
binding affinity of the inhibitors tested (rank order) [2]: apamin>scyllatoxin>NS1619>quinidine>bicuculline
Hill coefficient (nH) [2]: 1

Nc1cc(N2CCCCC2)nc(N)[n+]1[O-] [minoxidil]
effect on the fluorescence signals (responses to ATP/Tg and Cs+) ([3]; tested at 1.43 μM): no effect

CC(N/C(=N\C#N)Nc1ccncc1)C(C)(C)C (centres unmarked) [pinacidil]
effect on the fluorescence signals (responses to ATP/Tg and Cs+) ([3]; tested at 286 μM): no effect

C=C[C@H]1C[N@@]2CC[C@H]1C[C@@H]2[C@@H](O)c1ccnc2ccc(OC)cc12 [quinidine]
binding affinity of the inhibitors tested (rank order) [2]: apamin>scyllatoxin>NS1619>quinidine>bicuculline
Hill coefficient (nH) [2]: 0.6

iberiotoxin: inhibitor of the IK channel; isolated from Mesobuthus taniulus (QFTDVDCSVSKECWSVCKDLFGVDRGKCMGKKCRCYQ)
effect on the fluorescence signals (responses to ATP/Tg and Cs+) ([3]; tested at 833 nM): no effect

noxiustoxin: inhibitor of Ca2+- and voltage activated channels (TIINVKCTSPKQCSKPCKELYGSSAGAKCMNGKCKCYNN)
effect on the fluorescence signals (responses to ATP/Tg and Cs+) ([3]; tested at 833 nM): no effect

α-dendrotoxin (QPRRKLCILHRNPGRCYDKIPAFYYNQKKKQCERFDWSGCGGNSNRFKTIEECRRTCIG)
effect on the fluorescence signals (responses to ATP/Tg and Cs+) ([3]; tested at 833 nM): no effect
